{"source": "ChEMBL document CHEMBL4330108", "about": "“The association between anti-tumor potency and structure-activity of protein-kinases inhibitors based on quinazoline molecular skeleton” (Bioorg Med Chem, 2019)", "key": {"[1]": {"biological_target": "T1, Vascular endothelial growth factor receptor 2 (Homo sapiens, UniProt P35968)", "T1 sequence (P35968 whole entry)": "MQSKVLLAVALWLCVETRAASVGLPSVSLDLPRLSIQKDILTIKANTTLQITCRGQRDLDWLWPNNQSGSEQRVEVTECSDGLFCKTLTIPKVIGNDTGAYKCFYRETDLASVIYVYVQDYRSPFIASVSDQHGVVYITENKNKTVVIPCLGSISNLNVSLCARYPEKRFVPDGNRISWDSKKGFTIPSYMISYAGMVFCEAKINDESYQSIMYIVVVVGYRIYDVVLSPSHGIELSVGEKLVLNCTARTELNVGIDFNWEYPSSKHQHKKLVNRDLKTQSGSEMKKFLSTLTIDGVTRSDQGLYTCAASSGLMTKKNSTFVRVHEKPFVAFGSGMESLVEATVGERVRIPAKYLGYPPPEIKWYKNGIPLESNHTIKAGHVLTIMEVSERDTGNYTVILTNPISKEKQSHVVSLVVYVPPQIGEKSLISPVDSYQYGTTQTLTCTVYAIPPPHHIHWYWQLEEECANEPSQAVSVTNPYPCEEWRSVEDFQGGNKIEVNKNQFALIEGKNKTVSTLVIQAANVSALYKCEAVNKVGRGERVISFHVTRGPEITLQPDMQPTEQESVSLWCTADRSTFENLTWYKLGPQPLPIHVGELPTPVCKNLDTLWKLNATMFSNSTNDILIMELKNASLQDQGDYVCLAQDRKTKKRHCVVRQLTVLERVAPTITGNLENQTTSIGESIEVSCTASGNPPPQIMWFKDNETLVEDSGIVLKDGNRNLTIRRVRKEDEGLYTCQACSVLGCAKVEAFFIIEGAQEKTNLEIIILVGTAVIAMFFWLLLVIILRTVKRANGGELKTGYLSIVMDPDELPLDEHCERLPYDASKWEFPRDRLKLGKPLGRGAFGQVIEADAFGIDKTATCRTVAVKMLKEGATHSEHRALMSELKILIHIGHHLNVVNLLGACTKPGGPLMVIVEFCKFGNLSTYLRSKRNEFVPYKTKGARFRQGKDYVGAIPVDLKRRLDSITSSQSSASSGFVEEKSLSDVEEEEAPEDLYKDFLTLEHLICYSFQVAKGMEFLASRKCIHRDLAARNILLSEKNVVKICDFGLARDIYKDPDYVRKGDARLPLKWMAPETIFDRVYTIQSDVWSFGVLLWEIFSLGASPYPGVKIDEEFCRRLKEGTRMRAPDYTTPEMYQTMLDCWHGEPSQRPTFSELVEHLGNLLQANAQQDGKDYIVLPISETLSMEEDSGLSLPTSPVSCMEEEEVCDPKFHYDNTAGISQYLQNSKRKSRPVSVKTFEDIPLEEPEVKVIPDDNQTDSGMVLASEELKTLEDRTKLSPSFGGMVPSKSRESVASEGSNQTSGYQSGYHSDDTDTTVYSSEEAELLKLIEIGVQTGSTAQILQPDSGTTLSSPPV", "assay": "Inhibition of VEGFR2 (unknown origin) using FAM-labelled peptide as substrate measured after 10 mins"}, "[2]": {"biological_target": "Vascular endothelial growth factor receptor 1 (Homo sapiens, UniProt P17948)", "sequence (P17948 whole entry)": "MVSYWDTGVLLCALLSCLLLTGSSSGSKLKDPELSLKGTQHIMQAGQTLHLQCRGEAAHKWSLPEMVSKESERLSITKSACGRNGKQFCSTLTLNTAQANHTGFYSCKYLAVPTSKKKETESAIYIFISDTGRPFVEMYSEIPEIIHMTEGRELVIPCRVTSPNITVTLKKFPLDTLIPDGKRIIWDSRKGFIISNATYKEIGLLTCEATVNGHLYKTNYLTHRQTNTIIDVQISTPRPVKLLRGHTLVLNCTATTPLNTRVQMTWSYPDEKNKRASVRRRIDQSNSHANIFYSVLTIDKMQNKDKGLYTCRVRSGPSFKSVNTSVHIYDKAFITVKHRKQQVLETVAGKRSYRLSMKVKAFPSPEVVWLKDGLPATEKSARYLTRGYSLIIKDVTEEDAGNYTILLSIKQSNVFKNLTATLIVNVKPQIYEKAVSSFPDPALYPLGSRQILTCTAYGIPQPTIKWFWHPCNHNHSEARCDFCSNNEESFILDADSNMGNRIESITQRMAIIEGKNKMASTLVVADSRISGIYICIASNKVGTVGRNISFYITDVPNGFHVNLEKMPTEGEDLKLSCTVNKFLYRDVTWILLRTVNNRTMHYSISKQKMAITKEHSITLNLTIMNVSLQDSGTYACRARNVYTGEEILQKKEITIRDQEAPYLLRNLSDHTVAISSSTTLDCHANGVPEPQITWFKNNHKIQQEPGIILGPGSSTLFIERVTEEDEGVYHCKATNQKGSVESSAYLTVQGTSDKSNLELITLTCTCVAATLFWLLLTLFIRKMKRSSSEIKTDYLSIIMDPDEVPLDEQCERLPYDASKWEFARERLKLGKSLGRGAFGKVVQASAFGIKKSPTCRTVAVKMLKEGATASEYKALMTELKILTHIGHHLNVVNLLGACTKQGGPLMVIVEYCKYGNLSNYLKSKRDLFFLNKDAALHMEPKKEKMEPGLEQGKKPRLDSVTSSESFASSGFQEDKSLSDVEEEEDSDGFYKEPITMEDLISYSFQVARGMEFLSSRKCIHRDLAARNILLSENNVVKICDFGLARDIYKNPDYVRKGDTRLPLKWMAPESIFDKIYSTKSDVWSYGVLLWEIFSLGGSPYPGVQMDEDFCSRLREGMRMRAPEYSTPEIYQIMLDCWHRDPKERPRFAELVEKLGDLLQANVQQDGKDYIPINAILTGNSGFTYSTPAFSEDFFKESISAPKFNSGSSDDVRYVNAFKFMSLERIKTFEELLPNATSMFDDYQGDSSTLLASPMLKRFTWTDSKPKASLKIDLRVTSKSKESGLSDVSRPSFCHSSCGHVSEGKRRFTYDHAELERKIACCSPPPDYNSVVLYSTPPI", "assay": "Inhibition of VEGFR1 (unknown origin)"}, "[3]": {"biological_target": "T1, Vascular endothelial growth factor receptor 2"}, "[4]": {"biological_target": "Vascular endothelial growth factor receptor 3 (Homo sapiens, UniProt P35916)", "sequence (P35916 whole entry)": "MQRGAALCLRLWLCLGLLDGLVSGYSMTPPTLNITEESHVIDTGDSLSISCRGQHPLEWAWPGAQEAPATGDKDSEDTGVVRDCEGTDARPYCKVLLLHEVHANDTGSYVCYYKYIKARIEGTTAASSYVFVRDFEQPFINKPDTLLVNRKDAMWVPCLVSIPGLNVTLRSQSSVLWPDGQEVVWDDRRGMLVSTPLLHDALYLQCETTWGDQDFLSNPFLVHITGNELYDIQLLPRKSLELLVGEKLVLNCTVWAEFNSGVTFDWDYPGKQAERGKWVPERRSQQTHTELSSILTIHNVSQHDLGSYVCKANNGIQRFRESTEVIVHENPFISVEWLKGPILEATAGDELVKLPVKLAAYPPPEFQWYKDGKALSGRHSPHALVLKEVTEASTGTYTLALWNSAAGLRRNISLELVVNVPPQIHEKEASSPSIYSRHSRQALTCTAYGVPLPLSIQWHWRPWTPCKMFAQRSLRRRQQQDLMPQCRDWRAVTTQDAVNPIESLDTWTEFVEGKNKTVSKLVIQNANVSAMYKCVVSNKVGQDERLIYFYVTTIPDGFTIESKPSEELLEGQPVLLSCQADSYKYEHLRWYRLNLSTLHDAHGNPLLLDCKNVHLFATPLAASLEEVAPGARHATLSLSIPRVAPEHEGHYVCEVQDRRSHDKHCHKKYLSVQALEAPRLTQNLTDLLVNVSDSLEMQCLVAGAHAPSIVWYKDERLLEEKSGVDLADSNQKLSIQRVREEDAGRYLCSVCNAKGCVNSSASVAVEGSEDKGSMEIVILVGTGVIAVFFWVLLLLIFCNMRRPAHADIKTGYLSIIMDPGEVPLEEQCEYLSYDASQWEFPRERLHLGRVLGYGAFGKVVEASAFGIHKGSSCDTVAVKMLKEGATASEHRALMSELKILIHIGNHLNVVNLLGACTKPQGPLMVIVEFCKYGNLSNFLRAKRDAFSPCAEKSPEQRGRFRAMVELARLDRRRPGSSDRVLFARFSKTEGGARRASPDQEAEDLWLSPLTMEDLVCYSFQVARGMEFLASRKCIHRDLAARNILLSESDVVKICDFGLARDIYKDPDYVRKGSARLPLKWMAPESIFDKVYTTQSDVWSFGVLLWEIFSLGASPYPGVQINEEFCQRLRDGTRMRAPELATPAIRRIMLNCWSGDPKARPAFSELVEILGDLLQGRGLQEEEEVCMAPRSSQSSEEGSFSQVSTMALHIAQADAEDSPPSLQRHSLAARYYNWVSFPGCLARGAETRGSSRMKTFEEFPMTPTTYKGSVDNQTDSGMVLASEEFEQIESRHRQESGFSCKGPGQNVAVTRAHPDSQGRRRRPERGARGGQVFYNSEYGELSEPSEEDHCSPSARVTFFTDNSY", "assay": "Inhibition of VEGFR3 (unknown origin)"}, "[5]": {"biological_target": "Receptor tyrosine-protein kinase erbB-2 (Homo sapiens, UniProt P04626)", "assay": "Inhibition of HER2 (unknown origin)"}, "[6]": {"biological_target": "Epidermal growth factor receptor (Homo sapiens, UniProt P00533)", "assay": "Inhibition of EGFR (unknown origin)"}, "[7]": {"biological_target": "Serine/threonine-protein kinase B-raf (Homo sapiens) (UniProt P15056)", "assay": "Inhibition of wild-type B-Raf (unknown origin) at 10 uM relative to control"}, "[8]": {"assay": "Inhibition of PI3K (unknown origin) using PIP2 as substrate measured after 2 hrs by luciferase-luciferin […] assay", "parameters": "species or system Homo sapiens"}, "[9]": {"assay": "Inhibition of bovine brain PI3K using phosphatidylinositol as substrate preincubated for 5 mins followed by [gamma-32P]ATP addition and measured after 10 mins by liquid scintillation counting method", "parameters": "species or system Bos taurus"}, "[10]": {"assay": "Inhibition of PI3K (unknown origin)", "parameters": "species or system Homo sapiens"}, "[11]": {"biological_target": "Serine/threonine-protein kinase B-raf (Homo sapiens, UniProt P15056, V600E)", "sequence (P15056 2-766 V600E limits assumed)": "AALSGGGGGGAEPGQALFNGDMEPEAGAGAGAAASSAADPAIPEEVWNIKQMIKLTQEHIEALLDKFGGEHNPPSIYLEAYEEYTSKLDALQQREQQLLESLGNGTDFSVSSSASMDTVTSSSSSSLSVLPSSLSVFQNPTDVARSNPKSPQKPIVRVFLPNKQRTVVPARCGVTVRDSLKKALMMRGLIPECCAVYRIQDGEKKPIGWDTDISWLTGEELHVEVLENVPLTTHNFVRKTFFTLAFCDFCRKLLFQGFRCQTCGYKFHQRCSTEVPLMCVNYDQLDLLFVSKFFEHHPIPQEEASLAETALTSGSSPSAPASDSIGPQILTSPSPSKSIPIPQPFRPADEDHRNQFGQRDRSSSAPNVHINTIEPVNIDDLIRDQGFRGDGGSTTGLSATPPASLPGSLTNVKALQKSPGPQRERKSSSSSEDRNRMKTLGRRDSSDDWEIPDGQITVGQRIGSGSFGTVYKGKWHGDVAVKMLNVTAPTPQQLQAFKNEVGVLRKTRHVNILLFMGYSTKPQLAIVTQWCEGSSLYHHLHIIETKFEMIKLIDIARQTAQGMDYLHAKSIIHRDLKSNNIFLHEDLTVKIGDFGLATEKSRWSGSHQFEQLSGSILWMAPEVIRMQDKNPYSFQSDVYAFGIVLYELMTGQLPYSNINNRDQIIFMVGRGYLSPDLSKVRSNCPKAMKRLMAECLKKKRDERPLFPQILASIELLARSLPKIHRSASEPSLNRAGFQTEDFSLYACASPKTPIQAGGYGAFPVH", "assay": "Inhibition of recombinant human GST-fused B-Raf V600E mutant using MEK1 as substrate measured after 60 mins by HTRF assay"}, "Histone deacetylase 1": {"biological_target": "Histone deacetylase 1 (Homo sapiens, UniProt Q13547)", "assay": "Inhibition of HDAC1 (unknown origin) using HDAC substrate by AFC probe based immunoprecipitation assay"}}, "note": "pIC50: −log10 of the molar value.", "data": [{"smiles": "O=C(Nc1ccc(Nc2ccc([N+](=O)[O-])c3ncnc(O)c23)cc1)Nc1cc(Cl)ccc1Cl", "values": [{"measurement": "pIC50", "setting": "[1]", "result": 7.38}]}, {"smiles": "COc1cc2ncnc(Nc3ccc4c(c3)CCCN4C(=O)Nc3ccc(C(C)=O)cc3)c2cc1OC", "values": [{"measurement": "pIC50", "setting": "[2]", "result": 8.02}, {"measurement": "pIC50", "setting": "[3]", "result": 7.52}, {"measurement": "pIC50", "setting": "[4]", "result": 7.76}]}, {"smiles": "CCOc1cc2ncc(C#N)c(Nc3ccc(OCc4ccccn4)c(F)c3)c2cc1NC(=O)/C=C/CN(C)C", "values": [{"measurement": "pIC50", "setting": "[5]", "result": 7.23}, {"measurement": "pIC50", "setting": "[6]", "result": 7.04}]}, {"smiles": "CCOCCCOc1cc2ncnc(Oc3ccc(NC(=O)Nc4ccc(F)c(C(F)(F)F)c4)cc3)c2cc1N", "values": [{"measurement": "inhibition", "setting": "[7]", "result": 98.9, "unit": "%"}]}, {"smiles": "COc1cccc(NC(=O)N2CCCc3cc(Nc4ncnc5cc(OC)c(OC)cc45)ccc32)c1", "values": [{"measurement": "pIC50", "setting": "[2]", "result": 8.26}, {"measurement": "pIC50", "setting": "[3]", "result": 7.28}, {"measurement": "pIC50", "setting": "[4]", "result": 7.85}]}, {"smiles": "Cc1cc(N2CCC(F)(F)C2)cc2c(N3CCc4ccc(C(=O)N5CCC(N)CC5)cc4C3)ncnc12", "values": [{"measurement": "pIC50", "setting": "[8]", "result": "> 6.30"}]}, {"smiles": "O=c1cc(N2CCOCC2)oc2c(-c3ccccc3)cccc12", "note": "[LY-294002]", "values": [{"measurement": "pIC50", "setting": "[9]", "result": 6.00}]}, {"smiles": "c1ccc2c(c1)ccn2-c1ncnc2ccc(-c3ccc4[nH]ccc4c3)cc12", "values": [{"measurement": "pIC50", "setting": "[10]", "result": "5.00 to 7.00"}]}, {"smiles": "O=C(Nc1ccc(Nc2ccc([N+](=O)[O-])c3ncnc(O)c23)cc1)Nc1cc(C(F)(F)F)ccc1Cl", "values": [{"measurement": "pIC50", "setting": "[1]", "result": 7.92}]}, {"smiles": "Cc1cccc(NC(=O)Nc2ccc(Nc3ccc([N+](=O)[O-])c4ncnc(O)c34)cc2)c1", "values": [{"measurement": "pIC50", "setting": "[1]", "result": 7.11}]}, {"smiles": "CCOc1cc2ncc(C#N)c(Nc3ccc(Cl)c(F)c3)c2cc1NC(=O)/C=C/CN(C)C", "values": [{"measurement": "pIC50", "setting": "[2]", "result": 5.90}]}, {"smiles": "Cc1ccc(CC[C@@H]2CCN2C)c(NC(=O)Nc2cccc(Oc3ccc4nc[nH]c(=O)c4c3)c2)c1", "values": [{"measurement": "pIC50", "setting": "[11]", "result": 8.41}]}, {"smiles": "COc1cc2ncnc(Nc3ccc4c(c3)CCCN4C(=O)Nc3cccc(Cl)c3)c2cc1OC", "values": [{"measurement": "pIC50", "setting": "[2]", "result": 8.15}, {"measurement": "pIC50", "setting": "[3]", "result": 7.52}, {"measurement": "pIC50", "setting": "[4]", "result": 8.11}]}, {"smiles": "COc1cc2ncnc(Nc3ccc(CC(=O)Nc4cc(-c5cccs5)ccc4N)cc3)c2cc1OC", "values": [{"measurement": "pIC50", "setting": "Histone deacetylase 1", "result": 6.75}]}, {"smiles": "O=C(Nc1ccc(Nc2ccc([N+](=O)[O-])c3ncnc(O)c23)cc1)Nc1cccc(C(F)(F)F)c1", "values": [{"measurement": "pIC50", "setting": "[1]", "result": 7.35}]}]}
